In publication PMC6934184, “Selective DNA-PKcs inhibition extends the therapeutic index of localized radiotherapy and chemotherapy” (The Journal of Clinical Investigation, 2019):

Target: T1, BRAF (Homo sapiens, UniProt P15056)
T1 construct: purchased Thermo Fisher Scientific (Life Technologies) SelectScreen
Experiment: SelectScreen Z'LYTE
Format: biochemical
Details: ATP 100 µM
Outline: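 Compound tested in SelectScreen activity assays, Z'LYTE for CSF1R, CDK1/cyclin B and MAP2K6 and Adapta for CAMK1. ATP for CAMK1 was listed as 10, and Km app was used for CSF1R. Results are expressed in percent.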

T1 sequence (P15056 whole entry): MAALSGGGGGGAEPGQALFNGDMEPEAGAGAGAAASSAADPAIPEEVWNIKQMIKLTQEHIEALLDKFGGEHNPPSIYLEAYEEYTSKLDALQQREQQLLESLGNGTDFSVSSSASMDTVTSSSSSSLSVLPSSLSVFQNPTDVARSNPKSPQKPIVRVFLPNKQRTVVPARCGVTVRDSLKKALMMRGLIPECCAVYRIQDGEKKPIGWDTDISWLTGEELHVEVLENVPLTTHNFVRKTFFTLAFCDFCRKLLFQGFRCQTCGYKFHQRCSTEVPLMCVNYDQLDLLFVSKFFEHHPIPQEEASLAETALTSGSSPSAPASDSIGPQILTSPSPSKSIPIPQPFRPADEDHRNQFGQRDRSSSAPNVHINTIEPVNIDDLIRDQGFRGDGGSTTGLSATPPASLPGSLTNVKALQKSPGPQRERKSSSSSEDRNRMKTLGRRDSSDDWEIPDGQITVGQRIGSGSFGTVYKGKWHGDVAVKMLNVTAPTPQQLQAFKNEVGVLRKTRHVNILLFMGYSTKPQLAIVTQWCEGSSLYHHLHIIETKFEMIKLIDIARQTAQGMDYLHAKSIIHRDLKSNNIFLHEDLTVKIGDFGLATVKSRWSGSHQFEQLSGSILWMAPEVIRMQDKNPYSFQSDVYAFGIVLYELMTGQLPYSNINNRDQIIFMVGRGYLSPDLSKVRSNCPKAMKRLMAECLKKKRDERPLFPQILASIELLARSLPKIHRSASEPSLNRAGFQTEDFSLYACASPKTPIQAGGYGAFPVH

**Q.** Which inhibition at 1 µM does the source give for `CN(C(=O)CN1CCOCC1)c1ccc2sc3c(-c4cccc5c(=O)cc(N6CC7CCC(C6)O7)oc45)cccc3c2c1` [NU5455] here?
**A.** Its inhibition at 1 µM is 9.9%.
